US20240317721A1, “PYRAZOLYL DERIVATIVES AS INHIBITORS OF THE KRAS MUTANT PROTEIN” (NOVARTIS AG, priority 2021, published 2024)

Target: KRasG12C (M1-K169, biotinylated on the N-terminus) (Homo sapiens (Human), UniProt P01116, G12C)
Test: Covalent competition assay: scintillation proximity assay (SPA) quantifying covalent modification of KRASG12C
Type: binding
Settings: competition with radiolabeled covalent probe (Compound B/Compound A), 2 hours incubation, 10 nM KRasG12C
How it was run: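 Test compounds compete with a radiolabeled covalent probe for modification of N-terminally biotinylated KRasG12C(M1-K169):GDP, final 10 nM protein, 25 nM radio-ligand, 475 nM unlabelled ligand, 2 h with agitation in 20 mM Tris-HCl pH 7.5, 150 mM NaCl, 0.1 mM MgCl2, 0.01% Tween-20.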

IC50 | Compound
64 nM | C=CC(=O)N1CC2(CC(n3nc(N4CCC5(CN(C)CCO5)CC4(C)C)c(-c4c(Cl)c(C)cc5[nH]ncc45)c3C)C2)C1 (single isomer, unassigned) [Example 208a, 1-(6-(4-(5-chloro-6-methyl-1H-indazol-4-yl)-5-methyl-3-(4,8,8-trimethyl-1-oxa-4,9-diazaspiro[5.5]undecan-9-yl)-1H-pyrazol-1-yl)-2-azaspiro[3.3]heptan-2-yl)prop-2-en-1-one]
20 nM | C=CC(=O)N1CC2(CC(n3nc(N4CCN(C(=O)[C@@H]5CCCO5)CC45CCC5)c(-c4c(Cl)c(C)cc5[nH]ncc45)c3C)C2)C1 (single isomer, unassigned) [Example 124b]
> 5000 nM | C=CC(=O)N1CC2(CC(n3nc(N4CCN(C5CCCOC5)C[C@]4(C)CC)c(-c4c(Cl)c(C)cc5[nH]ncc45)c3C)C2)C1 (single isomer, unassigned) [Example 157b]
351 nM | C=CC(=O)N1CC2(CC(n3nc(N4CCN(CCOC)CC45CCC5)c(-c4c(Cl)c(Cl)cc5[nH]ncc45)c3C)C2)C1 (single isomer, unassigned) [Example 76a, 1-(6-(4-(5,6-dichloro-1H-indazol-4-yl)-3-(8-(2-methoxyethyl)-5,8-diazaspiro[3.5]nonan-5-yl)-5-methyl-1H-pyrazol-1-yl)-2-azaspiro[3.3]heptan-2-yl)prop-2-en-1-one]
> 5000 nM | C=CC(=O)N1CC2(CC(n3nc(N4CCN(Cc5ccccc5)CC45CCC5)c(-c4c(Cl)c(C)cc5[nH]ncc45)c3C)C2)C1 (single isomer, unassigned) [Example 100a, 1-(6-(3-(8-benzyl-5,8-diazaspiro[3.5]nonan-5-yl)-4-(5-chloro-6-methyl-1H-indazol-4-yl)-5-methyl-1H-pyrazol-1-yl)-2-azaspiro[3.3]heptan-2-yl)prop-2-en-1-one]
273 nM | C=CC(=O)N1CC2(CC(n3nc(N4CCC(N(C)C5COC5)CC4(C)C)c(-c4c(Cl)c(Cl)cc5[nH]ncc45)c3C)C2)C1 (single isomer, unassigned) [Example 50a, 1-(6-(4-(5,6-dichloro-1H-indazol-4-yl)-3-(2,2-dimethyl-4-(methyl(oxetan-3-yl)amino)piperidin-1-yl)-5-methyl-1H-pyrazol-1-yl)-2-azaspiro[3.3]heptan-2-yl)prop-2-en-1-one]
252 nM | C=CC(=O)N1CC2(CC(n3nc(N4CCN(C5CCOCC5)C[C@]4(C)COC)c(-c4c(Cl)c(Cl)cc5[nH]ncc45)c3C)C2)C1 (single isomer, unassigned) [Example 150a]
387 nM | C=CC(=O)N1CC2(CC(n3nc(N4CCN(Cc5cn(C)nn5)C[C@]4(C)CC)c(-c4c(Cl)c(C)cc5[nH]ncc45)c3C)C2)C1 (single isomer, unassigned) [Example 188a]

Further lines, the compound ahead of its results:

Compound | IC50
CC[C@@]1(C)CN(C[C@@H]2COCCO2)CCN1c1nn(C2CC3(C2)CN(C(=O)/C=C/Cl)C3)c(C)c1-c1c(Cl)c(C)cc2[nH]ncc12 (single isomer, unassigned) [Example 175b] | 9 nM
C=CC(=O)N1CC2(CC(n3nc(N4CCN(C(C)(C)C(=O)OC)CC45CCC5)c(-c4c(Cl)c(C)cc5[nH]ncc45)c3C)C2)C1 (single isomer, unassigned) [Example 180b, methyl 2-(5-(1-(2-acryloyl-2-azaspiro[3.3]heptan-6-yl)-4-(5-chloro-6-methyl-1H-indazol-4-yl)-5-methyl-1H-pyrazol-3-yl)-5,8-diazaspiro[3.5]nonan-8-yl)-2-methylpropanoate] | 17 nM
C=CC(=O)N1CC2(CC(n3nc(N4CC[C@@H](CN5CCC6(C5)CN(C(C)=O)C6)CC4(C)C)c(-c4c(Cl)c(Cl)cc5[nH]ncc45)c3C)C2)C1 (single isomer, unassigned) [Example 317b] | 7 nM
C=CC(=O)N1CC2(CC(n3nc(N4CC[C@@H](CN5CCCC6CN(C)C(=O)C65)CC4(C)C)c(-c4c(Cl)c(Cl)cc5[nH]ncc45)c3C)C2)C1 (single isomer, unassigned) [Example 262a, (4aR*,7aR*)-1-(((R)-1-(1-(2-acryloyl-2-azaspiro[3.3]heptan-6-yl)-4-(5,6-dichloro-1H-indazol-4-yl)-5-methyl-1H-pyrazol-3-yl)-2,2-dimethylpiperidin-4-yl)methyl)-6-methyloctahydro-7H-pyrrolo[3,4-b]pyridin-7-one] | > 5000 nM
Cc1cc2[nH]ncc2c(-c2c(N3CCN(C4COC4)CC34CCC4)nn(C3CC4(C3)CN(C(=O)/C=C/CF)C4)c2C)c1Cl (single isomer, unassigned) [Example 113a, (E)-1-(6-(4-(5-chloro-6-methyl-1H-indazol-4-yl)-5-methyl-3-(8-(oxetan-3-yl)-5,8-diazaspiro[3.5]nonan-5-yl)-1H-pyrazol-1-yl)-2-azaspiro[3.3]heptan-2-yl)-4-fluorobut-2-en-1-one] | > 5000 nM
C=CC(=O)N1CC2(CC(n3nc(N4CC[C@@H](CN5C[C@H](O)C[C@H]5COC)CC4(C)C)c(-c4c(Cl)c(Cl)cc5[nH]ncc45)c3C)C2)C1 (single isomer, unassigned) [Example 286a] | 1100 nM
C=CC(=O)N1CC2(CC(n3nc(N4CC[C@@H](CN5CCN6C(=O)N(C)CC6C5)CC4(C)C)c(-c4c(Cl)c(Cl)cc5[nH]ncc45)c3C)C2)C1 (single isomer, unassigned) [Example 264a] | 351 nM
C=CC(=O)N1CC2(CC(n3nc(N4CCC(O)(CN5CCOCC5)CC4(C)C)c(-c4c(Cl)c(Cl)cc5[nH]ncc45)c3C)C2)C1 (single isomer, unassigned) [Example 238a, 1-(6-(4-(5,6-dichloro-1H-indazol-4-yl)-3-(4-hydroxy-2,2-dimethyl-4-(morpholinomethyl)piperidin-1-yl)-5-methyl-1H-pyrazol-1-yl)-2-azaspiro[3.3]heptan-2-yl)prop-2-en-1-one] | 36 nM
C=CC(=O)N1CC2(CC(n3nc(N4CCN(C5COC5)CC45CCC5)c(-c4c(Cl)c(C)cc5[nH]ncc45)c3C)C2)C1 (single isomer, unassigned) [Example 54b, 1-(6-(4-(5-Chloro-6-methyl-1H-indazol-4-yl)-5-methyl-3-(8-(oxetan-3-yl)-5,8-diazaspiro[3.5]nonan-5-yl)-1H-pyrazol-1-yl)-2-azaspiro[3.3]heptan-2-yl)prop-2-en-1-one] | 15 nM
C=CC(=O)N1CC2(CC(n3nc(N4CCN(C(C)=O)CC4(C)C)c(-c4c(Cl)c(C)cc5[nH]ncc45)c3C)C2)C1 (single isomer, unassigned) [Example 18b, 1-(6-(3-(4-acetyl-2,2-dimethylpiperazin-1-yl)-4-(5-chloro-6-methyl-1H-indazol-4-yl)-5-methyl-1H-pyrazol-1-yl)-2-azaspiro[3.3]heptan-2-yl)prop-2-en-1-one] | 31 nM
C=CC(=O)N1CC2(CCC(n3nc(N4CCN(C(C)=O)CC4)c(-c4c(Cl)ccc5[nH]ncc45)c3C)C2)C1 (single isomer, unassigned) [Example 53c, 1-(6-(3-(4-acetylpiperazin-1-yl)-4-(5-chloro-1H-indazol-4-yl)-5-methyl-1H-pyrazol-1-yl)-2-azaspiro[3.4]octan-2-yl)prop-2-en-1-one] | > 50000 nM
C=CC(=O)N1CC2(CC(n3nc(N4CCN(C5CCOCC5)CC4(C)C)c(-c4c(Cl)c(Cl)cc5[nH]ncc45)c3C)C2)C1 (single isomer, unassigned) [Example 140a, 1-(6-(4-(5,6-dichloro-1H-indazol-4-yl)-3-(2,2-dimethyl-4-(tetrahydro-2H-pyran-4-yl)piperazin-1-yl)-5-methyl-1H-pyrazol-1-yl)-2-azaspiro[3.3]heptan-2-yl)prop-2-en-1-one] | 971 nM
C=CC(=O)N1CC2(CC(n3nc(N4CCN(C5COC5)CC4(CC)CC)c(-c4c(Cl)c(C)cc5[nH]ncc45)c3C)C2)C1 (single isomer, unassigned) [Example 152a, 1-(6-(4-(5-chloro-6-methyl-1H-indazol-4-yl)-3-(2,2-diethyl-4-(oxetan-3-yl)piperazin-1-yl)-5-methyl-1H-pyrazol-1-yl)-2-azaspiro[3.3]heptan-2-yl)prop-2-en-1-one] | > 5000 nM
C=CC(=O)N1CC2(CC(n3nc(N4CCN(CC5COCCOC5)CC45CCC5)c(-c4c(Cl)c(C)cc5[nH]ncc45)c3C)C2)C1 (single isomer, unassigned) [Example 185b, 1-(6-(3-(8-((1,4-dioxepan-6-yl)methyl)-5,8-diazaspiro[3.5]nonan-5-yl)-4-(5-chloro-6-methyl-1H-indazol-4-yl)-5-methyl-1H-pyrazol-1-yl)-2-azaspiro[3.3]heptan-2-yl)prop-2-en-1-one] | 15 nM
C=CC(=O)N1CC2(CC(n3nc(N4CCN(C5CCOCC5)CC45CCC5)c(-c4c(Cl)c(C)cc5[nH]ncc45)c3C)C2)C1 (single isomer, unassigned) [Example 130b, 1-(6-(4-(5-Chloro-6-methyl-1H-indazol-4-yl)-5-methyl-3-(8-(tetrahydro-2H-pyran-4-yl)-5,8-diazaspiro[3.5]nonan-5-yl)-1H-pyrazol-1-yl)-2-azaspiro[3.3]heptan-2-yl)prop-2-en-1-one] | 32 nM
C=CC(=O)N1CC2(CC(n3nc(N4CC[C@@H](CN5CCN(CCO)C(=O)C5)CC4(C)C)c(-c4c(Cl)c(Cl)cc5[nH]ncc45)c3C)C2)C1 (single isomer, unassigned) [Example 251a] | > 5000 nM
C=CC(=O)N1CC2(CC(n3nc(N4CCCC4(C)C)c(-c4c(Cl)c(C)cc5[nH]ncc45)c3C)C2)C1 (single isomer, unassigned) [Example 88a, 1-(6-(4-(5-chloro-6-methyl-1H-indazol-4-yl)-3-(2,2-dimethylpyrrolidin-1-yl)-5-methyl-1H-pyrazol-1-yl)-2-azaspiro[3.3]heptan-2-yl)prop-2-en-1-one] | > 5000 nM
